Assay results reported in US12077503B2, “Substituted cyclic amides and their use as herbicides” (FMC CORPORATION, priority 2015, dated 2024).

Key:
Experiment in all cases: Test C preemergence
Format in all cases: in vivo
[1] = test system: Galium (catchweed bedstraw, Galium aparine); conditions: for Plant response rating, Galium: scale 0 to 100, 0 no effect, 100 complete control
Method in brief: (§1)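 Herbicidal effect, applied preemergence to sown seeds or postemergence to 1- to 4-leaf plants, was scored visually 13 to 15 d after application, 0 to 100 versus controls.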

[2] = test system: lambsquarters (Chenopodium album); conditions: for Plant response rating, Lambsquarters: scale 0 to 100, 0 no effect, 100 complete control
Method in brief: as §1

[3] = test system: morningglory (Ipomoea coccinea); conditions: for Plant response rating, Morningglory: scale 0 to 100, 0 no effect, 100 complete control
Method in brief: as §1

corn (Zea mays) = conditions: for Plant response rating, Corn: scale 0 to 100, 0 no effect, 100 complete control
Method in brief: as §1

[4] = test system: pigweed (Amaranthus retroflexus); conditions: for Plant response rating, Pigweed: scale 0 to 100, 0 no effect, 100 complete control
Method in brief: as §1

[5] = test system: velvetleaf (Abutilon theophrasti); conditions: for Plant response rating, Velvetleaf: scale 0 to 100, 0 no effect, 100 complete control
Method in brief: as §1

[6] = test system: ragweed (common ragweed, Ambrosia elatior); conditions: for Plant response rating, Ragweed: scale 0 to 100, 0 no effect, 100 complete control
Method in brief: as §1

[7] = test system: ryegrass, Italian (Italian ryegrass, Lolium multiflorum); conditions: for Plant response rating, Ryegrass, Italian: scale 0 to 100, 0 no effect, 100 complete control
Method in brief: as §1

[8] = test system: wheat (winter wheat, Triticum aestivum); conditions: for Plant response rating, Wheat: scale 0 to 100, 0 no effect, 100 complete control
Method in brief: as §1

[9] = test system: oilseed rape (Brassica napus); conditions: for Plant response rating, Oilseed Rape: scale 0 to 100, 0 no effect, 100 complete control
Method in brief: as §1

[10] = test system: crabgrass, large (large crabgrass, Digitaria sanguinalis); conditions: for Plant response rating, Crabgrass, Large: scale 0 to 100, 0 no effect, 100 complete control
Method in brief: as §1

[11] = test system: nutsedge, yellow (yellow nutsedge, Cyperus esculentus); conditions: for Plant response rating, Nutsedge, Yellow: scale 0 to 100, 0 no effect, 100 complete control
Method in brief: as §1

[12] = test system: barnyardgrass (Echinochloa crus-galli); conditions: for Plant response rating, Barnyardgrass: scale 0 to 100, 0 no effect, 100 complete control
Method in brief: as §1

[13] = test system: johnsongrass (Sorghum halepense); conditions: for Plant response rating, Johnsongrass: scale 0 to 100, 0 no effect, 100 complete control
Method in brief: as §1

[14] = test system: foxtail, giant (giant foxtail, Setaria faberii); conditions: for Plant response rating, Foxtail, Giant: scale 0 to 100, 0 no effect, 100 complete control
Method in brief: as §1

[15] = test system: blackgrass (Alopecurus myosuroides); conditions: for Plant response rating, Blackgrass: scale 0 to 100, 0 no effect, 100 complete control
Method in brief: as §1

soybean (Glycine max) = conditions: for Plant response rating, Soybean: scale 0 to 100, 0 no effect, 100 complete control
Method in brief: as §1

[16] = 31 g ai/ha, 0 is no effect, 100 is complete control

CN1CC(c2cccc(OC(F)F)c2)C(C(=O)Nc2cccc(F)c2F)C1=O (stereo not drawn) [Compound 616]
Plant response rating (scale of 0 to 100), Galium [1, 16]: 90
Plant response rating, Galium ([1]; 62 g ai/ha): 85
Plant response rating, Galium ([1]; 125 g ai/ha): 85
Plant response rating, Galium ([1]; 250 g ai/ha): 90
Plant response rating (scale of 0 to 100), Lambsquarters [2, 16]: 25
Plant response rating, Lambsquarters ([2]; 62 g ai/ha): 35
Plant response rating, Lambsquarters ([2]; 125 g ai/ha): 70
Plant response rating, Lambsquarters ([2]; 250 g ai/ha): 60
Plant response rating (scale of 0 to 100), Morningglory [3, 16]: 0
Plant response rating, Morningglory ([3]; 62 g ai/ha): 0
Plant response rating, Morningglory ([3]; 125 g ai/ha): 10
Plant response rating, Morningglory ([3]; 250 g ai/ha): 10
Plant response rating (scale of 0 to 100), Corn (corn (Zea mays); [16]): 55
Plant response rating, Corn (corn (Zea mays); 62 g ai/ha): 65
Plant response rating, Corn (corn (Zea mays); 125 g ai/ha): 80
Plant response rating, Corn (corn (Zea mays); 250 g ai/ha): 85
Plant response rating (scale of 0 to 100), Pigweed [4, 16]: 75
Plant response rating, Pigweed ([4]; 62 g ai/ha): 80
Plant response rating, Pigweed ([4]; 125 g ai/ha): 80
Plant response rating, Pigweed ([4]; 250 g ai/ha): 80
Plant response rating (scale of 0 to 100), Velvetleaf [5, 16]: 0
Plant response rating, Velvetleaf ([5]; 62 g ai/ha): 10
Plant response rating, Velvetleaf ([5]; 125 g ai/ha): 40
Plant response rating, Velvetleaf ([5]; 250 g ai/ha): 35
Plant response rating (scale of 0 to 100), Ragweed [6, 16]: 25
Plant response rating, Ragweed ([6]; 62 g ai/ha): 25
Plant response rating, Ragweed ([6]; 125 g ai/ha): 50
Plant response rating, Ragweed ([6]; 250 g ai/ha): 75
Plant response rating (scale of 0 to 100), Ryegrass, Italian [7, 16]: 30
Plant response rating, Ryegrass, Italian ([7]; 62 g ai/ha): 35
Plant response rating, Ryegrass, Italian ([7]; 125 g ai/ha): 90
Plant response rating, Ryegrass, Italian ([7]; 250 g ai/ha): 85
Plant response rating (scale of 0 to 100), Wheat [8, 16]: 0
Plant response rating, Wheat ([8]; 62 g ai/ha): 10
Plant response rating, Wheat ([8]; 125 g ai/ha): 50
Plant response rating, Wheat ([8]; 250 g ai/ha): 85
Plant response rating (scale of 0 to 100), Oilseed Rape [9, 16]: 60
Plant response rating, Oilseed Rape ([9]; 62 g ai/ha): 60
Plant response rating, Oilseed Rape ([9]; 125 g ai/ha): 70
Plant response rating, Oilseed Rape ([9]; 250 g ai/ha): 85
Plant response rating (scale of 0 to 100), Crabgrass, Large [10, 16]: 90
Plant response rating, Crabgrass, Large ([10]; 62 g ai/ha): 90
Plant response rating, Crabgrass, Large ([10]; 125 g ai/ha): 95
Plant response rating, Crabgrass, Large ([10]; 250 g ai/ha): 95
Plant response rating (scale of 0 to 100), Nutsedge, Yellow [11, 16]: 0
Plant response rating, Nutsedge, Yellow ([11]; 62 g ai/ha): 0
Plant response rating, Nutsedge, Yellow ([11]; 125 g ai/ha): 0
Plant response rating, Nutsedge, Yellow ([11]; 250 g ai/ha): 0
Plant response rating (scale of 0 to 100), Barnyardgrass [12, 16]: 90
Plant response rating, Barnyardgrass ([12]; 62 g ai/ha): 90
Plant response rating, Barnyardgrass ([12]; 125 g ai/ha): 95
Plant response rating, Barnyardgrass ([12]; 250 g ai/ha): 95
Plant response rating (scale of 0 to 100), Johnsongrass [13, 16]: 60
Plant response rating, Johnsongrass ([13]; 62 g ai/ha): 85
Plant response rating, Johnsongrass ([13]; 125 g ai/ha): 75
Plant response rating, Johnsongrass ([13]; 250 g ai/ha): 90
Plant response rating (scale of 0 to 100), Foxtail, Giant [14, 16]: 90
Plant response rating, Foxtail, Giant ([14]; 62 g ai/ha): 90
Plant response rating, Foxtail, Giant ([14]; 125 g ai/ha): 90
Plant response rating, Foxtail, Giant ([14]; 250 g ai/ha): 95
Plant response rating (scale of 0 to 100), Blackgrass [15, 16]: 30
Plant response rating, Blackgrass ([15]; 62 g ai/ha): 45
Plant response rating, Blackgrass ([15]; 125 g ai/ha): 80
Plant response rating, Blackgrass ([15]; 250 g ai/ha): 80
Plant response rating (scale of 0 to 100), Soybean (soybean (Glycine max); [16]): 0
Plant response rating, Soybean (soybean (Glycine max); 62 g ai/ha): 0
Plant response rating, Soybean (soybean (Glycine max); 125 g ai/ha): 0
Plant response rating, Soybean (soybean (Glycine max); 250 g ai/ha): 15

O=C1NCC(c2cccc(OC(F)F)c2)C1C(=O)Nc1ccc(F)cc1F (stereo not drawn) [Compound 421]
Plant response rating, Galium ([1]; 31 g ai/ha): 0
Plant response rating, Galium ([1]; 62 g ai/ha): 0
Plant response rating, Galium ([1]; 125 g ai/ha): 55
Plant response rating, Galium ([1]; 250 g ai/ha): 45
Plant response rating, Lambsquarters ([2]; 31 g ai/ha): 10
Plant response rating, Lambsquarters ([2]; 62 g ai/ha): 35
Plant response rating, Lambsquarters ([2]; 125 g ai/ha): 60
Plant response rating, Lambsquarters ([2]; 250 g ai/ha): 70
Plant response rating, Morningglory ([3]; 31 g ai/ha): 0
Plant response rating, Morningglory ([3]; 62 g ai/ha): 0
Plant response rating, Morningglory ([3]; 125 g ai/ha): 15
Plant response rating, Morningglory ([3]; 250 g ai/ha): 20
Plant response rating, Corn (corn (Zea mays); 31 g ai/ha): 0
Plant response rating, Corn (corn (Zea mays); 62 g ai/ha): 0
Plant response rating, Corn (corn (Zea mays); 125 g ai/ha): 60
Plant response rating, Corn (corn (Zea mays); 250 g ai/ha): 75
Plant response rating, Pigweed ([4]; 31 g ai/ha): 0
Plant response rating, Pigweed ([4]; 62 g ai/ha): 0
Plant response rating, Pigweed ([4]; 125 g ai/ha): 35
Plant response rating, Pigweed ([4]; 250 g ai/ha): 60
Plant response rating, Velvetleaf ([5]; 62 g ai/ha): 20
Plant response rating, Velvetleaf ([5]; 125 g ai/ha): 20
Plant response rating, Velvetleaf ([5]; 250 g ai/ha): 40
Plant response rating, Ragweed ([6]; 31 g ai/ha): 0
Plant response rating, Ragweed ([6]; 62 g ai/ha): 30
Plant response rating, Ragweed ([6]; 125 g ai/ha): 40
Plant response rating, Ragweed ([6]; 250 g ai/ha): 60
Plant response rating, Ryegrass, Italian ([7]; 62 g ai/ha): 40
Plant response rating, Ryegrass, Italian ([7]; 125 g ai/ha): 35
Plant response rating, Ryegrass, Italian ([7]; 250 g ai/ha): 65
Plant response rating, Wheat ([8]; 62 g ai/ha): 0
Plant response rating, Wheat ([8]; 125 g ai/ha): 25
Plant response rating, Wheat ([8]; 250 g ai/ha): 40
Plant response rating, Oilseed Rape ([9]; 31 g ai/ha): 10
Plant response rating, Oilseed Rape ([9]; 62 g ai/ha): 25
Plant response rating, Oilseed Rape ([9]; 125 g ai/ha): 30
Plant response rating, Oilseed Rape ([9]; 250 g ai/ha): 35
Plant response rating, Crabgrass, Large ([10]; 31 g ai/ha): 90
Plant response rating, Crabgrass, Large ([10]; 62 g ai/ha): 95
Plant response rating, Crabgrass, Large ([10]; 125 g ai/ha): 90
Plant response rating, Crabgrass, Large ([10]; 250 g ai/ha): 95
Plant response rating, Nutsedge, Yellow ([11]; 31 g ai/ha): 0
Plant response rating, Nutsedge, Yellow ([11]; 62 g ai/ha): 0
Plant response rating, Nutsedge, Yellow ([11]; 125 g ai/ha): 0
Plant response rating, Nutsedge, Yellow ([11]; 250 g ai/ha): 0
Plant response rating, Barnyardgrass ([12]; 31 g ai/ha): 60
Plant response rating, Barnyardgrass ([12]; 62 g ai/ha): 80
Plant response rating, Barnyardgrass ([12]; 125 g ai/ha): 90
Plant response rating, Barnyardgrass ([12]; 250 g ai/ha): 95
Plant response rating, Johnsongrass ([13]; 31 g ai/ha): 0
Plant response rating, Johnsongrass ([13]; 62 g ai/ha): 0
Plant response rating, Johnsongrass ([13]; 125 g ai/ha): 0
Plant response rating, Johnsongrass ([13]; 250 g ai/ha): 0
Plant response rating, Foxtail, Giant ([14]; 31 g ai/ha): 80
Plant response rating, Foxtail, Giant ([14]; 62 g ai/ha): 85
Plant response rating, Foxtail, Giant ([14]; 125 g ai/ha): 85
Plant response rating, Foxtail, Giant ([14]; 250 g ai/ha): 90
Plant response rating, Blackgrass ([15]; 31 g ai/ha): 40
Plant response rating, Blackgrass ([15]; 62 g ai/ha): 45
Plant response rating, Blackgrass ([15]; 125 g ai/ha): 70
Plant response rating, Blackgrass ([15]; 250 g ai/ha): 70
Plant response rating, Soybean (soybean (Glycine max); 62 g ai/ha): 0
Plant response rating, Soybean (soybean (Glycine max); 125 g ai/ha): 0
Plant response rating, Soybean (soybean (Glycine max); 250 g ai/ha): 10
